The text below walks through data of paper PMC6934184, “Selective DNA-PKcs inhibition extends the therapeutic index of localized radiotherapy and chemotherapy” (The Journal of Clinical Investigation, 2019).

As usually defined, the inhibition is the drop in the measured response relative to a control, in per cent.

For the experiment, the target named is T1, IKBKB (IKK beta) (Homo sapiens, UniProt O14920).
T1 construct: purchased Thermo Fisher Scientific (Life Technologies) SelectScreen
The experiment is described as follows: SelectScreen Z'LYTE. The experiment is classed as biochemical. In outline: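 Percent values come from Thermo SelectScreen profiling of NU5455, combining activity and binding assays. CSF1R was run in Z'LYTE format at Km app ATP, and CAMK1 in Adapta format with ATP listed at 10.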

T1 sequence (O14920 whole entry): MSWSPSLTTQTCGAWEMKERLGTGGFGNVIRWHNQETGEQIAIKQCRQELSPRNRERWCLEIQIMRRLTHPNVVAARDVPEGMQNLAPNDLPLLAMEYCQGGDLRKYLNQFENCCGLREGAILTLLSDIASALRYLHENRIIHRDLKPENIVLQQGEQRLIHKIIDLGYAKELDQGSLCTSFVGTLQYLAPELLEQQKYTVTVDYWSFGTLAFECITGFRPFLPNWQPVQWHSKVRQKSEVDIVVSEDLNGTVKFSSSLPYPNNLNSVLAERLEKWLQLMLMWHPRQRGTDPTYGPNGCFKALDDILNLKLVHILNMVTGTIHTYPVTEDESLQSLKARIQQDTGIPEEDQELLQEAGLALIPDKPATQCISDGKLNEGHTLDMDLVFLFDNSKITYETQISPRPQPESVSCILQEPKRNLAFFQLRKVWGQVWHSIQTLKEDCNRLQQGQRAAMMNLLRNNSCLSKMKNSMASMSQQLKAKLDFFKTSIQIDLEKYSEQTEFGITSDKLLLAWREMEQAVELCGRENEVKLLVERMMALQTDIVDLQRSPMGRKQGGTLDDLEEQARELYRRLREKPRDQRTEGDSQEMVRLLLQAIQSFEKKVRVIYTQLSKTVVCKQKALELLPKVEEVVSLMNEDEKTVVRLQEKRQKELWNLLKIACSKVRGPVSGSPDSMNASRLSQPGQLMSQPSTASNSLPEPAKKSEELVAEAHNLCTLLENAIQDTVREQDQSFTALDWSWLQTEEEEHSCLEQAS

`CN(C(=O)CN1CCOCC1)c1ccc2sc3c(-c4cccc5c(=O)cc(N6CC7CCC(C6)O7)oc45)cccc3c2c1` [NU5455]: the inhibition at 1 µM was -0.6%.
